Laboratory results taken from patent US20160166604A1, “Thiol-Sensitive Positive Inotropes” (priority 2005, published 2016).
“Also recorded” adds a separate entry of the source.

Tests used:
SR Ca2+ pump (SERCA2a) = biological target: T1, SR Ca2+ pump (SERCA2a) (Mus musculus, UniProt O55143); test: ATP-dependent Ca2+ uptake by murine cardiac SR vesicles (stopped-flow, arsenazo III); type: biochemical
T1 construct: Crude cardiac microsomal vesicles containing fragmented sarcoplasmic reticulum (SR) were prepared; from tissue; host or cells: pooled hearts of C57 male mice (crude SR microsomal vesicles)
Procedure: Crude cardiac microsomal vesicles containing fragmented sarcoplasmic reticulum (SR) were prepared as previously described for rat heart. Froehlich, J. P. et al., J. Mol. Cell. Cardiol., 10, 427-438 (1978). Pooled hearts from C57 male mice sacrificed by cervical dislocation were placed in 0.9% saline on ice, trimmed of atrial and connective tissue, and weighed. The finely minced heart muscle was homogenized in 10 mM NaHCO3 using a Polytron blender and the SR vesicles were separated from the myofilaments, mitochondria and nuclear membranes by differential centrifugation at 8,500 and 45,000×g. SR vesicles suspended in 0.25 M sucrose+10 mM MOPS, pH 7.0 were frozen and stored in liquid nitrogen prior to use. Twenty minutes prior to measuring Ca^2+ uptake, cardiac SR vesicles (1 mg/ml in storage buffer) were incubated with 250 μM AS delivered from a freshly-prepared 10 mM stock solution of AS (Na2N2O3) dissolved in 10 mM NaOH. […] Stopped-flow mixing was used to measure the initial time course of Ca^2+ accumulation by murine cardiac SR vesicles using the Ca^2+ indicator dye, arsenazo III. Membrane vesicles (0.4 mg/ml) suspended in a medium containing 100 mM KCl, 1 mM MgCl2, 50 μM arsenazo III, 5 mM sodium azide, and 20 mM MOPS, pH 7.4, were mixed with an equal volume of an identical medium containing 1 mM Na2ATP at 24° C. in a manually-operated stopped-flow apparatus (Applied Photophysics, Ltd.). The change in [Ca^2+] in the mixing cuvette was monitored using a single-beam UV-VIS spectrophotometer (AVIV, Model 14DS) with a monochromator setting of 650 nm. The total [Ca^2+] in the uptake medium was 0.5 μM, yielding a free [Ca^2+] in equilibrium with the Ca-arsenazo III complex of 0.2 μM (KA=3.3×10^4 M^−1). […] The time-dependent decrease in absorbance at 650 nm, reflecting Ca^2+ uptake by the SR vesicles, was monitored for 30-60 s at 0.1 s intervals. […] The signal change due to vesicle light scattering was evaluated from separate measurements conducted under identical conditions at the isosbestic wavelength of 693 nm. For evaluation of the time course of Ca^2+ uptake, a representative trace at 693 nm was subtracted from each of the individual traces at 650 nm acquired under identical conditions. The kinetic and thermodynamic parameters for Ca^2+ uptake were evaluated by fitting stopped-flow signals to one- and two-exponential decay functions plus a residual term using non-linear regression (Prism, Version 3.03). Residual plots of the difference between the fitted curve and data points were used to evaluate systematic errors in the fits and to calculate the sum-of-squares error used in selecting the best fit.
To test whether HNO directly enhances SR Ca^2+ uptake, its effects on SR membrane vesicles isolated from pooled C57/Bl6 mouse hearts were studied. Crude SR microsomal vesicles were incubated with 250 μM AS prior to measuring ATP-dependent Ca uptake by stopped-flow mixing at 24° C. Arsenazo III, a mid-range Ca indicator, was used to monitor Ca removal from the eravesicular compartment and buffer the free [Ca^2+] at a level producing half-saturation of the Ca^2+ pump (˜0.2 μM).

[1] = End-diastolic pressure-volume relationship (EDPVR) in chronically instrumented dogs with pacing-induced cardiac failure; type: in vivo; conditions: CHF dog preparations
Procedure: Adult male mongrel dogs (22-25 kg) were chronically instrumented for pressure-dimension analysis as described. See, Paolocci et al., “Positive Inotropic and Lusitropic Effects of HNO/NO− in Failing Hearts: Independence from Beta-Adrenergic Signaling,” Proc. Natl. Acad. Sci. USA., 100, 5537-5542 (2003); and Senzaki et al., Circulation, 101, 1040-1048 (2000). Animals were anesthetized with 1% to 2% halothane after induction with sodium thiopental (10-20 mg/kg, i.v.). The surgical/experimental animal protocol was approved by the Johns Hopkins University Animal Care and Use Committee. […] Cardiac failure was induced by rapid ventricular pacing for 3 weeks as described. See, Paolocci et al., supra, and Senzaki et al., supra.
Hemodynamic data were digitized at 250 Hz. […] These relations strongly correlate with results from pressure-volume data in normal and failing hearts, as previously validated. Cardiovascular function was assessed by stroke dimension, fractional shortening (stroke dimension/end-diastolic dimension [EDD]), estimated cardiac output (stroke dimension×HR), peak rate of pressure rise (dP/dtmax), end-systolic elastance (Ees, slope of end-systolic pressure-dimension relation [ESPDR]), the slope of dP/dtmax-EDD relation (DEDD) (see, Little, Circ Res., 56:808-815 (1985)), pre-recruitable stroke work (PRSW), (based on dimension-data), estimated arterial elastance (Ea, end systolic pressure/stroke dimension) and estimated total resistance (RT, […]). Ees, DEDD and PRSW provide load-insensitive contractility measures.
The end-diastolic pressure-volume relationship (EDPVR) was determined applying non-linear regression analysis to the end-diastolic pressure and volume points (Ped and Ved, respectively), according to Kass, Cardiol Clin., 18, 571-86 (2000) (Review).
In order to evaluate the impact of each pharmacological intervention on the EDPVR, changes in end-diastolic pressure from baseline (ΔPed) at volumes providing baseline end-diastolic pressure of […] mmHg EDP (V10, V15, V20, respectively) were determined (FIG. 5).

[2] = system: isolated mouse ventricular myocytes; test: Sarcomere shortening in field-stimulated isolated mouse ventricular myocytes; type: cell-based
Procedure: Wild type 2-4 month old mice were anesthetized with intraperitoneal pentobarbital sodium (100 mg/kg/ip). Hearts were perfused as previously described. Mongillo, M. et al., Circ. Res., 98, 226-234 (2006). To assess for sarcomere shortening, cells were imaged using field stimulation (Warner instruments) in an inverted fluorescence microscope (Diaphot 200; Nikon, Inc). Sarcomere length was measured by real-time Fourier transform (IonOptix MyoCam, CCCCD100M) and cell twitch amplitude is expressed as a percentage of resting cell length. Twitch kinetics was quantified by measuring the time to peak shortening and the time from peak shortening to 50% relaxation. For whole calcium transient measurements, myocytes were loaded with the Ca^2+ indicator fluo-4/AM (Molecular Probes, 20 μM for 30 min) and Ca^2+ transients were measured under field-stimulation at 0.5 Hz in perfusion solution by confocal laser scanning microscope (LSM510, Carl Zeiss). Digital image analysis used customer-designed programs coded in Interactive Data Language (IDL).
Nitroxyl (HNO) confers positive inotropy in vivo. Here, it was determined whether HNO action stems from a direct influence on sarcoplasmic reticulum (SR) Ca^2+ cycling, involving enhanced Ca^2+ release from ryanodine receptors (RyR2). Myocytes were isolated from ST mice, suspended in Tyrode's solution (1 mM Ca^2+) and field stimulated (0.5 Hz, 25° C.). Sarcomere shortening (SS) was assessed by real-time image analysis, Ca^2+ transients from Indo-1 fluorescence. RyR2 activity was determined by optical imaging of Ca^2+ release from single Ca^2+ release units.

RyR2 = biological target: T2, RyR2 (Mus musculus, UniProt E9Q401); test: Spontaneous Ca2+ sparks and spark frequency in intact murine myocytes; type: cell-based; conditions: for effect on Ca2+ sparks in control and AS (0.5 mM) cells: thapsigargin 10 μM, 30 min, ryanodine 10 μM
T2 construct: endogenous in cells; host or cells: freshly isolated adult mouse cardiac myocytes
Procedure: Freshly isolated mouse cardiac myocytes were loaded with the Ca^2+ indicator fluo-4/AM (Molecular Probes, 20 μM for 30 min). Confocal images were acquired using a confocal laser-scanning microscope (LSM510, Carl Zeiss) with a Zeiss Plan-Neofluor 40× oil immersion objective (NA≈1.3). Fluo-4/AM was excited by an argon laser (488 nm), and fluorescence was measured at >505 nm. Images were taken in the line-scan mode, with the scan line parallel to the long axis of the myocytes. Each image consisted of 512 line scans obtained at 1.92 ms intervals, each comprising 512 pixels at 0.10 μm separation. Digital image analysis used customer-designed programs coded in Interactive Data language (IDL) and a modified spark detection algorithm. Cheng, H. et al., Biophys. J., 76, 606-617 (1999).
Nitroxyl (HNO) confers positive inotropy in vivo. Here, it was determined whether HNO action stems from a direct influence on sarcoplasmic reticulum (SR) Ca^2+ cycling, involving enhanced Ca^2+ release from ryanodine receptors (RyR2). Myocytes were isolated from ST mice, suspended in Tyrode's solution (1 mM Ca^2+) and field stimulated (0.5 Hz, 25° C.). Sarcomere shortening (SS) was assessed by real-time image analysis, Ca^2+ transients from Indo-1 fluorescence. RyR2 activity was determined by optical imaging of Ca^2+ release from single Ca^2+ release units. The HNO donor Angeli's Salt (AS) induced dose-dependent inotropy (SS: 73±31% at 0.5 mM; 131±31% at 1 mM; all n=15, p<0.05 vs. base; <0.1 mM: no effect). In contrast, the NO donor DEA/NO reduced SS by 55-65% at 5-50 μM (both p<0.05 vs. base), with no effect at higher doses. […] However, co-infusion with the thiol-donating compound N-acetyl-L-cysteine (NAC, 3 mM) abolished AS inotropy.

[3] = system: cardiac myocytes from WT and Gαq overexpressing FVB/N mice; test: Sarcomere shortening in cardiac myocytes from WT and Gαq overexpressing mice; type: cell-based, mouse; conditions: for enhancement of sarcomere shortening: WT cells
Procedure: Cardiac myocytes were isolated from WT and Gαq overexpressing 2-6 month old FVB/N mice, suspended in Tyrode's solution (1 mM calcium) and field stimulated at 0.5 Hz at 23° C. Sarcomere shortening (SS) was assessed by real-time image analysis; data are presented at steady-state (10 minutes drug infusion).

T2 sequence (E9Q401 whole entry): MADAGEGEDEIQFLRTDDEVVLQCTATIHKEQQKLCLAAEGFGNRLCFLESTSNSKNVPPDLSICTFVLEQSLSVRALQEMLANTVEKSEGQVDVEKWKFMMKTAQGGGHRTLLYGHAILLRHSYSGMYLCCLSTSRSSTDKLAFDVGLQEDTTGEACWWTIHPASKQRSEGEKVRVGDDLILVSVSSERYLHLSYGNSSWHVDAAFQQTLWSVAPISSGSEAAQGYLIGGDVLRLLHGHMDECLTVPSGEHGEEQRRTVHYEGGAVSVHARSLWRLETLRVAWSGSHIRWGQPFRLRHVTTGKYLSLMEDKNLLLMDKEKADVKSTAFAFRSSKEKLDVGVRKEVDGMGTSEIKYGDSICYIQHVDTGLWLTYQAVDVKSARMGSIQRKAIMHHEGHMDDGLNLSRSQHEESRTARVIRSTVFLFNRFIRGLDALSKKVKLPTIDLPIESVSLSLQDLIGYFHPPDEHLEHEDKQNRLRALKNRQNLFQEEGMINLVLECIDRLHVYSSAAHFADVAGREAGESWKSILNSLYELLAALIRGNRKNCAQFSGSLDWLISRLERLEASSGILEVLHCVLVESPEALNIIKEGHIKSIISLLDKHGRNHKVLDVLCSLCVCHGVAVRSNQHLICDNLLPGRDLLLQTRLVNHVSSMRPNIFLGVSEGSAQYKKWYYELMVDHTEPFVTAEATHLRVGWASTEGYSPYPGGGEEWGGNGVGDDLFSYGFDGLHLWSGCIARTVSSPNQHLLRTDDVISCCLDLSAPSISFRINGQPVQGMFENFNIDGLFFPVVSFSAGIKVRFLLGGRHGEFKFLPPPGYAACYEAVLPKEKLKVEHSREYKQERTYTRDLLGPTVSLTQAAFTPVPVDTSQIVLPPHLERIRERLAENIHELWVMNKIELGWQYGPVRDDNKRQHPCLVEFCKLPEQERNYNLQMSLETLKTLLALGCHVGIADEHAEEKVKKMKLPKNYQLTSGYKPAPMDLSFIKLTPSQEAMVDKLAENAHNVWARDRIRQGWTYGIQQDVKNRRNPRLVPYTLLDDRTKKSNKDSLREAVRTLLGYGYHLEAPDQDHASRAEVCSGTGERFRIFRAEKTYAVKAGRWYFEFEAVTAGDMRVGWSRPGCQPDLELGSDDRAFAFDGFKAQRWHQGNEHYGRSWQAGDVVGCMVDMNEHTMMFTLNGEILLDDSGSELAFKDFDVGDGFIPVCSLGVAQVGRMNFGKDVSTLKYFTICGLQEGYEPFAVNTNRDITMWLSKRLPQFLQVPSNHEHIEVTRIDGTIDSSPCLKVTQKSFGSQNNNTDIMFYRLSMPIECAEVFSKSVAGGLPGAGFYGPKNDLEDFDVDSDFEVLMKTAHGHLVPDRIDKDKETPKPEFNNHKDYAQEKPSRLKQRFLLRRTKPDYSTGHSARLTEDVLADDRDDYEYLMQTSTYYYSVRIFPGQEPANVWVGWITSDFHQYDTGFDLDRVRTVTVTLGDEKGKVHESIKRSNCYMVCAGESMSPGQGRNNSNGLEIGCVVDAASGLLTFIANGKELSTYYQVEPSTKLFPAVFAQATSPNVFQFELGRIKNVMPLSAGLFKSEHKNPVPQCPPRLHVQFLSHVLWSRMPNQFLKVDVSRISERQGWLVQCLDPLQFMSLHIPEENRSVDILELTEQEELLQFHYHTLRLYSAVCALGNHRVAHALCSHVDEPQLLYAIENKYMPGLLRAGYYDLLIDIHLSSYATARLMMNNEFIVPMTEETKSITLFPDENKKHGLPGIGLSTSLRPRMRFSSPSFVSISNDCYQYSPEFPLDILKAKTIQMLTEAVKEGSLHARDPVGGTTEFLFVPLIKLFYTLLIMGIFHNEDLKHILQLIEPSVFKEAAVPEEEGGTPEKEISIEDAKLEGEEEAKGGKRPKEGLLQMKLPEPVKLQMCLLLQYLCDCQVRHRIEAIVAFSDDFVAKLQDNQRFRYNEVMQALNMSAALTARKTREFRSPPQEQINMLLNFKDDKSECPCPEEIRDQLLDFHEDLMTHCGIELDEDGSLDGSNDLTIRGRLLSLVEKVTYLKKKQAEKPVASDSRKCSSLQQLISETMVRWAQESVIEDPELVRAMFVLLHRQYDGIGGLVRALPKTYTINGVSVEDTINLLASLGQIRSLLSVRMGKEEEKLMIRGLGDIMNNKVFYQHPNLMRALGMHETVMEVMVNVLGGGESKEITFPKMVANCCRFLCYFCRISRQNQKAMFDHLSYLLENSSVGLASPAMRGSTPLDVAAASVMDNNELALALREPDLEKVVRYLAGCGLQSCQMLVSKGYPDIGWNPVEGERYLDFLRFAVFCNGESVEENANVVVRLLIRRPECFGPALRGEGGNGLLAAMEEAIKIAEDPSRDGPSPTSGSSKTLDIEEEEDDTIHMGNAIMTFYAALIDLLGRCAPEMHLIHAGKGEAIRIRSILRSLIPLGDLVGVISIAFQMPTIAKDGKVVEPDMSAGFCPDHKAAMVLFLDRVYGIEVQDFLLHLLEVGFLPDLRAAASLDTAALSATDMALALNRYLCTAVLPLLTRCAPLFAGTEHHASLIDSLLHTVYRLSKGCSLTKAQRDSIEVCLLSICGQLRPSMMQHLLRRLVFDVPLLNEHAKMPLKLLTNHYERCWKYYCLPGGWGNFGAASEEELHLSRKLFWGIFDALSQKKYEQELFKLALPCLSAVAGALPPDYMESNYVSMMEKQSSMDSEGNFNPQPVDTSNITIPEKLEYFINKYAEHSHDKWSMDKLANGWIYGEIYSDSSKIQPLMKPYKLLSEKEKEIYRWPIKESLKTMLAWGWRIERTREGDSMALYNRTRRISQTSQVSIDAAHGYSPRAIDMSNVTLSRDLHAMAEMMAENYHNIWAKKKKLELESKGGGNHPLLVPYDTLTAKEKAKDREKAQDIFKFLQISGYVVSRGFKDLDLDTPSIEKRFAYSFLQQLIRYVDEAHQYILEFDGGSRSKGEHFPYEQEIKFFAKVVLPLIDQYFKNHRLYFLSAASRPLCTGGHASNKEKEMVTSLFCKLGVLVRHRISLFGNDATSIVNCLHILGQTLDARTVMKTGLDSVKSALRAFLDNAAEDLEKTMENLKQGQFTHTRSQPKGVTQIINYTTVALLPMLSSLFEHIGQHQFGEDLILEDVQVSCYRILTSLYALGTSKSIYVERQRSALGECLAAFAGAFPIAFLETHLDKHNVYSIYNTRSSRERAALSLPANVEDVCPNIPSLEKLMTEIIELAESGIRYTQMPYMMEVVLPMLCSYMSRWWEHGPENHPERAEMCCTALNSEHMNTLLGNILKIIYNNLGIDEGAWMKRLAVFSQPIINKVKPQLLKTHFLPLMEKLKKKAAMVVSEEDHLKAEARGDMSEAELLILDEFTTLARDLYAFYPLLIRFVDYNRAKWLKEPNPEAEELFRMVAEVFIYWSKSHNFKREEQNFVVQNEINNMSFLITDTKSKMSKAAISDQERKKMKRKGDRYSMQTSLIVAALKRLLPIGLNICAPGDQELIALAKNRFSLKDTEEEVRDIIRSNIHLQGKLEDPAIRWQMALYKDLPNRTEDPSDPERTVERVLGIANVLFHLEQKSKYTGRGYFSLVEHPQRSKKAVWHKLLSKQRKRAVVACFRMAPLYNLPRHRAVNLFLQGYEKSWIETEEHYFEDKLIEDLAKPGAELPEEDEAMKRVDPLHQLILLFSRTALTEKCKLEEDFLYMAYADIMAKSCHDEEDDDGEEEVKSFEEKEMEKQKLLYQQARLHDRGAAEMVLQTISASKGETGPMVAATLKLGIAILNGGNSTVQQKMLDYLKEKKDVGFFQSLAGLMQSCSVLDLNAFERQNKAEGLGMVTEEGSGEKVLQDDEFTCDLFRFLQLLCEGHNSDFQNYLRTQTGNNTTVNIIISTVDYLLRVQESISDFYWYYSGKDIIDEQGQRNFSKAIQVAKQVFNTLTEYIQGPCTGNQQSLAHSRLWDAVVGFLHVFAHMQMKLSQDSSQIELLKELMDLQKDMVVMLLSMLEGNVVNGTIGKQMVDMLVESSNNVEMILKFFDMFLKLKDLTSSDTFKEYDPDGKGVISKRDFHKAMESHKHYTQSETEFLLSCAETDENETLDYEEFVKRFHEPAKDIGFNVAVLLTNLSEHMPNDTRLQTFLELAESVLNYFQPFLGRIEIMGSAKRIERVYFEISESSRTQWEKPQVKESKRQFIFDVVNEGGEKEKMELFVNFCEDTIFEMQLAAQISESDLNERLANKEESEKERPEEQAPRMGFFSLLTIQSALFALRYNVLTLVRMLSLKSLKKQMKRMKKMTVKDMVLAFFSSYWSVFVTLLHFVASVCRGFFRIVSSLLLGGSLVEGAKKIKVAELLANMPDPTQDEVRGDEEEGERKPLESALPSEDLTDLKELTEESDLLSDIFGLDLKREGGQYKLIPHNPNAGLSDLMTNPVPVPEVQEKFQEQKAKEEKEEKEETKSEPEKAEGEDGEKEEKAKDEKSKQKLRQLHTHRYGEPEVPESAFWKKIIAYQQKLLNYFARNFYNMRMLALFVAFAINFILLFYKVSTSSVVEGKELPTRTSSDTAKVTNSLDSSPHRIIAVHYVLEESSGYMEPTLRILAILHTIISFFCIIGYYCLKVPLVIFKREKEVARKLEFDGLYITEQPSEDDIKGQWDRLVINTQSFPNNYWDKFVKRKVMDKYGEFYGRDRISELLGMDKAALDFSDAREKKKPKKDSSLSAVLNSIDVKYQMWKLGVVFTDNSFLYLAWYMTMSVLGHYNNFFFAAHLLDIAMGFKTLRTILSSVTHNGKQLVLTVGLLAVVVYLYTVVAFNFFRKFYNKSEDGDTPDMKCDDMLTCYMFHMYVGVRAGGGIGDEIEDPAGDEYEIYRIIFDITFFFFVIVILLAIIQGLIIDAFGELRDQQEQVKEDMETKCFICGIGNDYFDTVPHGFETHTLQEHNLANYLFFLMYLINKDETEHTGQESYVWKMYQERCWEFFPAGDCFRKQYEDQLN

Compound: CNc1ccc2oc(C[C@H]3O[C@@]4(CC[C@H]3C)O[C@H]([C@H](C)C(=O)c3ccc[nH]3)[C@H](C)C[C@H]4C)nc2c1C(=O)O [A23187]
- decrease of total Ca2+ uptake (SR Ca2+ pump (SERCA2a); A23187 pre-incubation, 5 μg ionophore/mg SR protein): > 50%

Compound: CCN(CC)[N+]([O-])=N[O-].[Na+] [DEA/NO, sodium 2-(N,N-diethylamino)-diazenolate-2-oxide]
- effect on end-diastolic pressure-volume relationship (EDPVR) [1]: parallel down-ward shift
- effect of co-application on ISO (2.5 nM)-stimulated sarcomere shortening ([2]; DEA/NO 0.25 mM, AS 0.5 mM): markedly blunted
- reduction of sarcomere shortening ([2]; DEA/NO 5-50 μM): 55-65%
- effect of PKG inhibitor Rp-8Br-cGMPs on the agent's inotropy ([2]; Rp-8Br-cGMPs 10 μM pre-treatment): modest positive response
- reproduction of AS increase in sarcomere shortening by equimolar NO donor ([2]; equimolar to AS): not reproduced
- effect on sarcomere shortening ([2]; higher doses): no effect; also recorded: minimal changes
- effect on sarcomere shortening ([2]; low doses): slight depression
- effect on Ca2+ spark frequency (RyR2; DEA/NO, increasing / equimolar doses): no effect; also recorded: did not significantly affect

Compound: C=C[C@@]1(C)CC(=O)[C@]2(O)[C@@]3(C)[C@@H](O)CCC(C)(C)[C@@H]3[C@H](O)[C@H](OC(C)=O)[C@@]2(C)O1 [FSK, forskolin]
- increase in sarcomere shortening ([3]; Gαq myocytes, 25 nM FSK): 85±9%
- increase in sarcomere shortening ([3]; Gαq myocytes, 100 nM FSK): 158±62%

Compound: CC(C)N[N+]([O-])=N[O-].[Na+] [IPA/NO, isopropylamine diazeniumdiolate]
- effect on end-diastolic pressure-volume relationship (EDPVR) [1]: downward shift; also recorded: declined significantly

Compound: CC(C)NCC(O)c1ccc(O)c(O)c1 (centres unmarked) [ISO, isoproterenol]
- increase in sarcomere shortening ([2]; ISO 2.5 nM, n=30): 100±27%
- effect of PKA inhibitor Rp-CPT-cAMPs on the agent's enhancement of sarcomere shortening ([2]; Rp-CPT-cAMPs 100 μM pre-treatment): blunts
- contractile response ([3]; Gαq myocytes, ISO 2.5 and 10 nM): did not elicit any contractile response
- enhancement of sarcomere shortening ([3]; ISO 2.5 nM): 74±24%
- enhancement of sarcomere shortening ([3]; ISO 10 nM): 250±75%

Compound: O=NO [NO2^−, nitrite]
- effect on sarcomere shortening ([2]; 25-250 μM NO2- and higher or lower doses): no effect

Compound: O=[N+]([O-])OCC(CO[N+](=O)[O-])O[N+](=O)[O-] [NTG, nitroglycerin]
- effect on end-diastolic pressure-volume relationship (EDPVR) [1]: parallel down-ward shift
- effect on end-diastolic pressure-volume relationship (EDPVR) ([1]; listed as nitroglycerin): parallel downward shift

Compound: C/C=C(/C)C(=O)O[C@H]1C(C)=C2[C@H]([C@@H]1OC(=O)CCCCCCC)[C@@](C)(OC(C)=O)C[C@H](OC(=O)CCC)[C@@]1(O)[C@H]2OC(=O)[C@@]1(C)O [thapsigargin]
- effect on SR vesicle Ca2+ uptake (SR Ca2+ pump (SERCA2a); thapsigargin 10 μM): abolished
- effect on Ca2+ sparks in control and AS (0.5 mM) cells (RyR2): abolished

Compound: ryanodine
- effect on Ca2+ sparks in control and AS (0.5 mM) cells (RyR2): abolished
